Here are results for 3 molecules from patent publication US5859010A, “Factor VII -binding reagent” (Novo Nordisk A/S, priority 1996, dated 1999).

The conditions of data set [1]: blood; cited from earlier work.
For another data set, the system named is factor VIIa. Kind of data set: Effect of zinc and calcium ions on the activity of factor VIIa (FIG. 1A). Type of data set: biochemical. The following applies: absence of tissue factor (FIG. 1A). The text has this:
(§1) An effect of Ca^2+ ions is not easily contemplated in this model since the binding site for Ca^2+ in the serine protease domain is not nearby. […] Since histidines are prominant in zinc coordination we further propose that one or more of the residues of His 211, His 216 and His 256 are involved in the binding of Zn^2+ ions to factor VIIa.

The subject of data set [2] is factor VIIa-tissue factor complex. Kind of data set: Effect of zinc and calcium ions on the activity of the factor VIIa-tissue factor complex (FIG. 1B). Type of data set: biochemical. As to conditions: presence of tissue factor (FIG. 1B).
From the text: as §1

In data set [3] the target is T1, Factor VIIa/tissue factor (Homo sapiens, UniProt P08709).
T1 construct: Single-chain factor VII may be converted to two-chain factor VIIa
T1 sequence (P08709 213-466 limits assumed): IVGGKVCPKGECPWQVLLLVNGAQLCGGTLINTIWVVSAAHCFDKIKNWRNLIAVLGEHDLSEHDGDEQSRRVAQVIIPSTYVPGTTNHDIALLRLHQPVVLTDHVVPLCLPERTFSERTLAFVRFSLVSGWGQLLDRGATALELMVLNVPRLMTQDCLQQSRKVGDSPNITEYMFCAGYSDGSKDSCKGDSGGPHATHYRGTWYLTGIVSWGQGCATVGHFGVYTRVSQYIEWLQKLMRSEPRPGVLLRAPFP
T1 sequence (P08709 61-212 partner limits assumed): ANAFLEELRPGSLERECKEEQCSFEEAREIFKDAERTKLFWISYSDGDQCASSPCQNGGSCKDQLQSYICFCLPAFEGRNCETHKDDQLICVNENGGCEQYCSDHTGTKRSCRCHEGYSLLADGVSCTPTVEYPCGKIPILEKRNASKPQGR
T1 sequence (P13726 33-295 partner): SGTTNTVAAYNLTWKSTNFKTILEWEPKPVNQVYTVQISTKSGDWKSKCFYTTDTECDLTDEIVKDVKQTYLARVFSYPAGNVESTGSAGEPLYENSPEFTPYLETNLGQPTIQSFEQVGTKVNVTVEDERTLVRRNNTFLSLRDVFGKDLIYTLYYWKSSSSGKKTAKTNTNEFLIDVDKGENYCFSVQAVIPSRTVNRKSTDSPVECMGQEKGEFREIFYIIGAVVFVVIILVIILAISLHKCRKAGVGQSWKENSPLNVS
Kind of data set: FVIIa/tissue factor activity measured with S2288 in presence and absence of Zn and chelator. The following applies: 10 nM FVIIa, 50 nM tissue factor. The data set is classed as biochemical. Here is the method:
The activity of 10 nM FVIIa and 50 nM tissue factor in the presence and absence of Zn and chelator was measured with S2288 as described in Example 4

Turning to heparin, the half-life entry in data set [1] was “approximately 80 minutes”.

With `[Zn+2]` [Zn^2+], the “inhibitory effect of Zn2+ on factor VIIa activity in presence of Ca2+” value (with factor VIIa; in data set [2]) was “partly abolished by Ca^2+ ions in a competitive manner” each time.

In the case of `O=C(NO)c1cc(C(=O)NO)[nH]n1` [NNC (28)], the activity at 50 µM is 55% in data set [3] (100 μM ZnCl2, 50 μM compound) and 98% in data set [3] (No ZnCl2, 50 μM compound).
